Where two headings read alike, the source gives them in different places.
Tests used:
[1] = design: method as in SimCYP library version 19; conditions: ref SimCYP library version 19; cited from earlier work
CYP3A4 [2] = system: CYP3A4; design: method as in SimCYP library version 19; conditions: ref SimCYP library version 19; cited from earlier work
[3] = model input; ref SimCYP library version 19; cited from earlier work
Caco-2 = conditions: ref SimCYP library version 19, cited from earlier work
[4] = ref SimCYP library version 19, cited from earlier work
[5] = Apparent permeability in Caco-2 monolayers; format: in vitro ADME; conditions: human
Caco‐2 monolayers = test: Apparent permeability in Caco-2 monolayers; format: in vitro ADME; conditions: Caco‐2, 10 μM, 2 h
P-gp [6] = target: T1, P-gp (Homo sapiens, UniProt P08183); test: P-gp substrate assessment in Caco-2 monolayers with verapamil; format: in vitro ADME; conditions: Caco-2, with verapamil (concentration not stated), read-out: Efflux ratio P app,BL→AP/AP→BL, with inhibitor
T1 construct: endogenous in cells; host or cells: Caco-2
T1 sequence (P08183 whole entry): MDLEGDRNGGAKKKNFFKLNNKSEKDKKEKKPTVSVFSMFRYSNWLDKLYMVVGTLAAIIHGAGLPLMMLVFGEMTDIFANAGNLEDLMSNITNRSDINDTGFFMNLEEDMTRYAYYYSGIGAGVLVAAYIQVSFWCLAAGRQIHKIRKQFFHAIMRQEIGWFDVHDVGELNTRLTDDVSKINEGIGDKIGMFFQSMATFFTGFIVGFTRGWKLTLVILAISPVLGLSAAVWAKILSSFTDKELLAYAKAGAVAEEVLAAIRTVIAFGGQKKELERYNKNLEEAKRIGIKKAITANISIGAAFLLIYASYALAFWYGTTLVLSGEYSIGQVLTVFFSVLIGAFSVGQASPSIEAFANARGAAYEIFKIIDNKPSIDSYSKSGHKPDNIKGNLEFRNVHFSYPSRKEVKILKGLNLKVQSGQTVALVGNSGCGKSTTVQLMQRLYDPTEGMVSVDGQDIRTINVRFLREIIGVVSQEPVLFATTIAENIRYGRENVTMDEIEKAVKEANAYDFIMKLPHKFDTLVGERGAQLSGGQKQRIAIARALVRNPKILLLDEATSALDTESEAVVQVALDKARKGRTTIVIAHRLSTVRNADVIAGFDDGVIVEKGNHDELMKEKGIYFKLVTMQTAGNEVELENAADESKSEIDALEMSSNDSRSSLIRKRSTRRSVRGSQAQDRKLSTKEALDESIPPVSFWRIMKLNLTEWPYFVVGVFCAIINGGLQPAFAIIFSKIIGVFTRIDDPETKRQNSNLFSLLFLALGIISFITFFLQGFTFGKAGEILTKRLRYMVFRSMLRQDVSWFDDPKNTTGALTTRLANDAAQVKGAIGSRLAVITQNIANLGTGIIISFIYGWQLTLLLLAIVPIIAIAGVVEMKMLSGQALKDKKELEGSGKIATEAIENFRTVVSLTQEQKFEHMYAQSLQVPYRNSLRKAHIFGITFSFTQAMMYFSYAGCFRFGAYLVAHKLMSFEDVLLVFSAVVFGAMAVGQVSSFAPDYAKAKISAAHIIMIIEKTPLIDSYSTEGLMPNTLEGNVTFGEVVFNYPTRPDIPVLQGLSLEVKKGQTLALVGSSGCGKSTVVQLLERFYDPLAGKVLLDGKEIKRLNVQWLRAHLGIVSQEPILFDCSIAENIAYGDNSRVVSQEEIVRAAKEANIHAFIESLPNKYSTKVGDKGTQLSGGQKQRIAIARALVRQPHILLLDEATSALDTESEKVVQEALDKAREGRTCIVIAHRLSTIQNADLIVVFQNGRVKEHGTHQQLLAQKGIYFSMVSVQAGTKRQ

P-gp [7] = system: T2, P-gp; test: as above; format: in vitro ADME; conditions: human, Caco-2, with verapamil (concentration not stated)
T2 construct: endogenous in cells; host or cells: Caco-2

MDCK II = conditions: fluvoxamine file with reference compounds; ref SimCYP library version 19; cited from earlier work
CYP2C8 [8] = system: CYP2C8; design: method as in SimCYP library version 19; conditions: ref SimCYP library version 19; cited from earlier work
CYP1A2 [9] = system: CYP1A2; design: method as in SimCYP library version 19; conditions: ref SimCYP library version 19; cited from earlier work
CYP2B6 = system: CYP2B6; design: method as in SimCYP library version 19; conditions: ref SimCYP library version 19, cited from earlier work
CYP2C8 [10] = system: CYP2C8; design: method as in SimCYP library version 19; conditions: ref SimCYP library version 19, cited from earlier work
[11] = model input; ref SimCYP library version 19; cited from earlier work; remark: listed apart in the source
[12] = model input; ref SimCYP library version 19; cited from earlier work; remark: listed apart in the source
CYP1A2 [13] = conditions: read-out: CYP1A2 Ki; competitive inhibition; ref SimCYP library version 19; cited from earlier work
CYP2C9 = conditions: read-out: CYP2C9 Ki; competitive inhibition; ref SimCYP library version 19; cited from earlier work
CYP2C19 = conditions: read-out: CYP2C19 Ki; competitive inhibition; ref SimCYP library version 19; cited from earlier work
CYP2D6 = conditions: read-out: CYP2D6 Ki; competitive inhibition; ref SimCYP library version 19; cited from earlier work
CYP3A4 [14] = conditions: cited from earlier work
[15] = pH 7.4: pH 7.4, Passive&Active, erythromycin file with reference compounds

**Q.** Which CLR [1] does the source give for CC[C@H]1OC(=O)[C@H](C)[C@@H](O[C@H]2C[C@@](C)(OC)[C@@H](O)[C@H](C)O2)[C@H](C)[C@@H](O[C@@H]2O[C@H](C)C[C@H](N(C)C)[C@H]2O)[C@](C)(O)C[C@@H](C)C(=O)[C@H](C)[C@@H](O)[C@]1(C)O [Erythromycin] here?
**A.** 3.13 L/h

**Q.** What about the “CYP3A4 Kapp” value (CYP3A4 [2]) of the same compound?
**A.** 23.2 µM

**Q.** And the “Fraction unbound in plasma” value [3]?
**A.** 0.31

**Q.** And the “Caco-2 Papp” value (Caco-2; [15])?
**A.** 1.7 10^-6 cm/s

**Q.** What about the Vss ([4]; minimal PBPK model) of the same compound?
**A.** 0.75/30 L/kg

**Q.** What about the “Volume [Vsac]” value ([4]; single adjusting compartment) of the same compound?
**A.** 1e-05 L/kg

**Q.** What about the kin ([4]; single adjusting compartment) of the same compound?
**A.** 0 h⁻¹

**Q.** What about the kout ([4]; single adjusting compartment) of the same compound?
**A.** 0 h⁻¹

**Q.** For CC(C)NCC(O)COc1cccc2ccccc12 (centres unmarked) [Propranolol], which Papp at 2 h ([5]; Caco-2, Apical pH : Basolateral pH 7.4 : 7.4, source Measured, read-out: Caco-2 permeability (model input)) is on record?
**A.** 29.4 ×10⁻⁶ cm/s

**Q.** And the Papp B→A at 2 h, 10 μM ([5]; Caco‐2, 10 μM, 2 h, read-out: P app,BL→AP, without inhibitor)?
**A.** 23.1 ×10⁻⁶ cm/s

**Q.** And the efflux ratio at 2 h, 10 μM ([5]; Caco‐2, 10 μM, read-out: Efflux ratio P app,BL→AP/AP→BL, without inhibitor)?
**A.** 0.785

**Q.** What about the “P app,AP→BL, without inhibitor” value (Caco‐2 monolayers) of the same compound?
**A.** 29.4 10^−6 cm/s

**Q.** What about the efflux ratio at 2 h, 10 μM (P-gp [6]) of the same compound?
**A.** 0.382

**Q.** What about the Papp A→B at 2 h, 10 μM (P-gp [7]; read-out: P app,AP→BL, with inhibitor) of the same compound?
**A.** 57.4 ×10⁻⁶ cm/s

**Q.** And the Papp B→A at 2 h, 10 μM (P-gp [7]; read-out: P app,BL→AP, with inhibitor)?
**A.** 21.9 ×10⁻⁶ cm/s

**Q.** And the “Reference compound Papp” value (Caco-2; Caco-2 pH 6.5: pH 7.4, references of fluconazole file, unit not given)?
**A.** 27.5

**Q.** What about the “Caco-2 Papp” value (Caco-2; pH 6.5: pH 7.4, Passive, rifampicin file with reference compound) of the same compound?
**A.** 21.15 10^-6 cm/s

**Q.** What about the “Caco-2 Papp” value (Caco-2; [15]) of the same compound?
**A.** 147 10^-6 cm/s

**Q.** And the “MDCK II Papp” value (MDCK II)?
**A.** 40.3 10^-6 cm/s

**Q.** Which CLR [1] does the source give for CO[C@H]1/C=C/O[C@@]2(C)Oc3c(C)c(O)c4c(O)c(c(/C=N/N5CCN(C)CC5)c(O)c4c3C2=O)NC(=O)/C(C)=C\C=C\[C@H](C)[C@H](O)[C@@H](C)[C@@H](O)[C@@H](C)[C@H](OC(C)=O)[C@@H]1C [Rifampicin] here?
**A.** 1.26 L/h

**Q.** What about the “fumic (CYP2C8 inhibition)” value (CYP2C8 [8]) of the same compound?
**A.** 1

**Q.** And the “fuinc (CYP1A2 induction)” value (CYP1A2 [9])?
**A.** 1

**Q.** What about the EC50 (CYP2B6; induction, read-out: CYP2B6 IndC50) of the same compound?
**A.** 70 nM

**Q.** What about the “fuinc (CYP2B6 induction)” value (CYP2B6) of the same compound?
**A.** 1

**Q.** What about the EC50 (CYP2C8 [10]; induction, read-out: CYP2C8 IndC50) of the same compound?
**A.** 300 nM

**Q.** What about the “fuinc (CYP2C8 induction)” value (CYP2C8 [10]) of the same compound?
**A.** 1

**Q.** And the “Fraction unbound in plasma” value [3]?
**A.** 0.116

**Q.** And the “Log P” value [11]?
**A.** 4.01

**Q.** And the “pKa 1” value [11]?
**A.** 1.7

**Q.** And the “pKa 2” value [11]?
**A.** 7.9

**Q.** And the Lag time [12]?
**A.** 0/30 h

**Q.** What about the QGut [12] of the same compound?
**A.** 9.42/30

**Q.** And the fuGut [12]?
**A.** 0.14

**Q.** And the kin ([4]; single adjusting compartment)?
**A.** 0 h⁻¹

**Q.** What about the kout ([4]; single adjusting compartment) of the same compound?
**A.** 0 h⁻¹

**Q.** For COCCCC/C(=N\OCCN)c1ccc(C(F)(F)F)cc1 [Fluvoxamine], which “pKa 1” value [11] is on record?
**A.** 8.7

**Q.** And the Ki (CYP1A2 [13])?
**A.** 2 nM

**Q.** What about the Ki (CYP2C9) of the same compound?
**A.** 126 nM

**Q.** And the Ki (CYP2C19)?
**A.** 6 nM

**Q.** What about the Ki (CYP2D6) of the same compound?
**A.** 189 nM

From publication PMC10349193 (CPT: Pharmacometrics & Systems Pharmacology, 2023)
